# ChEMBL document CHEMBL1125524, “Adenosine A1 antagonists. 2. Structure-activity relationships on diuretic activities and protective effects against acute renal failure” (J Med Chem, 1992)
# Where “and” joins values, the source holds several entries; their conditions need not be identical. Equal entries are not always repeated.
# Key:
# [1] = tested on: Rattus norvegicus; experiment: Effect on urinary excretion potassium and sodium after oral administration of 0.1 mg/kg to rats(potassium and sodium excretion in control rat is 0.147+/-0.015); assay type: functional, Urine
# [2] = tested on: Rattus norvegicus; experiment: Ratio of urinary excretion value (urinary volume) in treated rats to that in control rats, at a peroral dose of 0.1 mg/Kg; assay type: functional, Urine
# [3] = tested on: Rattus norvegicus; experiment: Serum creatinine concentration measured after intraperitoneal administration of 1 mg/kg of compound to rats(vehicle 4.5+/-0.24); assay type: functional
# [4] = tested on: Rattus norvegicus; experiment: Ratio of urinary excretion value (Na+ concentration) in treated rats to that in control rats, at a peroral dose of 0.01 mg/Kg; assay type: functional, Urine
# [5] = tested on: Rattus norvegicus; experiment: Ratio of sodium ion/potassium ion concentration in treated rats to that in control rats, at a peroral dose of 1.6 mg/Kg; assay type: functional
# [6] = tested on: Rattus norvegicus; experiment: Ratio of sodium ion/potassium ion concentration in treated rats to that in control rats, at a peroral dose of 0.4 mg/Kg; assay type: functional
# [7] = tested on: Rattus norvegicus; experiment: Oral diuretic activity was measured after oral administration of 0.4 mg/kg to rats(control volume is 0.97+/-0.05); assay type: functional, Urine
# [8] = target: Adenosine A2 receptor (Rattus norvegicus, UniProt P29276+P30543)
# [9] = tested on: Rattus norvegicus; experiment: Ratio of urinary excretion value (urinary volume) in treated rats to that in control rats, at a peroral dose of 1.6 mg/Kg; assay type: functional, Urine
# [10] = tested on: Rattus norvegicus; experiment: Effect on urinary excretion potassium and sodium after oral administration of 0.4 mg/kg to rats(potassium and sodium excretion in control rat is 0.0.169+/-0.012); assay type: functional, Urine
# [11] = tested on: Rattus norvegicus; experiment: Serum creatinine concentration measured after intraperitoneal administration of 0.1 mg/kg of compound to rats(vehicle 5.43+/-0.11); assay type: functional
# [12] = species: Rattus norvegicus; experiment: Percent inhibition of serum creatinine by the compound given as ratio of Cr value in treated to vehicle treated ones; assay type: functional
# [13] = tested on: Rattus norvegicus; experiment: Oral diuretic activity was measured after oral administration of 0.01 mg/kg to rats(control volume is 1.05+/-0.11); assay type: functional, Urine
# [14] = tested on: Rattus norvegicus; experiment: Ratio of urinary excretion value (Na+ concentration) in treated rats to that in control rats, at a peroral dose of 0.4 mg/Kg; assay type: functional, Urine
# [15] = tested on: Rattus norvegicus; experiment: Urea nitrogen concentration measured after intraperitoneal administration of 1 mg/kg of compound to rats(vehicle 151.5+/-7.4); assay type: functional
# [16] = tested on: Rattus norvegicus; experiment: Ratio of sodium ion/potassium ion concentration in treated rats to that in control rats, at a peroral dose of 0.01 mg/Kg; assay type: functional
# [17] = tested on: Rattus norvegicus; experiment: Effect on urinary excretion potassium and sodium after oral administration of 1.6 mg/kg to rats(potassium and sodium excretion in control rat is 0.189+/-0.005); assay type: functional, Urine
# [18] = tested on: Rattus norvegicus; experiment: Ratio of urinary excretion value (urinary volume) in treated rats to that in control rats, at a peroral dose of 0.4 mg/Kg; assay type: functional, Urine
# [19] = tested on: Rattus norvegicus; experiment: Oral diuretic activity was measured after oral administration of 1.6 mg/kg to rats(control volume is 1.12+/-0.05); assay type: functional, Urine
# [20] = tested on: Rattus norvegicus; experiment: Ratio of urinary excretion value (Na+ concentration) in treated rats to that in control rats, at a peroral dose of 1.6 mg/Kg; assay type: functional, Urine
# [21] = tested on: Rattus norvegicus; experiment: Oral diuretic activity was measured after oral administration of 0.1 mg/kg to rats(control volume is 0.96+/-0.09); assay type: functional, Urine
# [22] = tested on: Rattus norvegicus; experiment: Effect on urinary excretion potassium and sodium after oral administration of 0.01 mg/kg to rats(potassium and sodium excretion in control rat is 0.180+/-0.017); assay type: functional, Urine
# [23] = tested on: Rattus norvegicus; experiment: Ratio of sodium ion/potassium ion concentration in treated rats to that in control rats, at a peroral dose of 0.1 mg/Kg; assay type: functional
# [24] = tested on: Rattus norvegicus; experiment: Ratio of urinary excretion value (Na+ concentration) in treated rats to that in control rats, at a peroral dose of 0.1 mg/Kg; assay type: functional, Urine
# [25] = tested on: Rattus norvegicus; experiment: Ratio of urinary excretion value (urinary volume) in treated rats to that in control rats, at a peroral dose of 0.01 mg/Kg; assay type: functional, Urine
# [26] = tested on: Rattus norvegicus; experiment: Urea nitrogen concentration measured after intraperitoneal administration of 0.1 mg/kg of compound to rats(vehicle 141.3+/-8.3); assay type: functional
# [27] = tested on: Rattus norvegicus; experiment: Ratio of urinary excretion value (urinary volume) in treated rats to that in control rats, at a peroral dose of 25 mg/Kg; assay type: functional, Urine
# [28] = tested on: Rattus norvegicus; experiment: Percent inhibition of Urea nitrogen by the compound given as ratio of UN value in treated to vehicle treated ones after intraperitoneal administration of 1 mg/kg of compound to rats(vehicle 147.9+/-6.1); assay type: functional; conditions: ip
# [29] = tested on: Rattus norvegicus; experiment: Effect on urinary excretion potassium and sodium after oral administration of 25 mg/kg to rats(potassium and sodium excretion in control rat is 0.252+/-0.022); assay type: functional, Urine
# [30] = tested on: Rattus norvegicus; experiment: Ratio of urinary excretion value (urinary volume) in treated rats to that in control rats, at a peroral dose of 6.25 mg/Kg; assay type: functional, Urine
# [31] = tested on: Rattus norvegicus; experiment: Oral diuretic activity was measured after oral administration of 25 mg/kg to rats(control volume is […]+/-[…]); assay type: functional, Urine
# [32] = target: T1, Adenosine receptor A1 (Cavia porcellus, UniProt P47745)
# T1 sequence (P47745 whole entry): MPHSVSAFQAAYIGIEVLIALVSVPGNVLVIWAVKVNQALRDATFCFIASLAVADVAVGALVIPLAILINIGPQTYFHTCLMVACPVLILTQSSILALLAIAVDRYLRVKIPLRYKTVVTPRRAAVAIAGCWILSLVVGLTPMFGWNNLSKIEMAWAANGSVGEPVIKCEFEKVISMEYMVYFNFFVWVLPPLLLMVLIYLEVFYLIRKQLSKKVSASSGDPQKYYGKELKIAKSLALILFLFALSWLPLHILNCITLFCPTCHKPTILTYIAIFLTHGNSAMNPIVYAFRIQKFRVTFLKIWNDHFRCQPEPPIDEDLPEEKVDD
# Description: Binding affinity against adenosine A1 receptor in guinea pig forebrain membranes using N6-[3H]cyclohexyladenosine as radioligand
# [33] = tested on: Rattus norvegicus; experiment: Ratio of urinary excretion value (Na+ concentration) in treated rats to that in control rats, at a peroral dose of 25 mg/Kg; assay type: functional, Urine
# [34] = tested on: Rattus norvegicus; experiment: Effect on urinary excretion potassium and sodium after oral administration of 0.4 mg/kg to rats(potassium and sodium excretion in control rat is 0.261+/-0.0087); assay type: functional, Urine
# [35] = tested on: Rattus norvegicus; experiment: Serum creatinine concentration measured after intraperitoneal administration of 1 mg/kg of compound to rats(vehicle 4.41+/-0.17); assay type: functional
# [36] = tested on: Rattus norvegicus; experiment: Oral diuretic activity was measured after oral administration of 0.4 mg/kg to rats(control volume is […]+/-[…]); assay type: functional, Urine
# [37] = tested on: Rattus norvegicus; experiment: Percent inhibition of serum creatinine by the compound given as ratio of Cr value in treated to vehicle treated ones after intraperitoneal administration of 1 mg/kg of compound to rats(vehicle 4.41+/-0.17); assay type: functional; conditions: ip
# [38] = tested on: Rattus norvegicus; experiment: Urea nitrogen concentration measured after intraperitoneal administration of 1 mg/kg of compound to rats(vehicle 147.9+/-6.1); assay type: functional
# [39] = tested on: Rattus norvegicus; experiment: Ratio of urinary excretion value (Na+ concentration) in treated rats to that in control rats, at a peroral dose of 6.25 mg/Kg; assay type: functional, Urine
compound,measurement,setting,value
CCCCn1c(=O)c2nc(C34CC5CC(CC3C5)C4)[nH]c2n(CCCC)c1=O,Na,[1],0.279 m equiv 6hr-1 100g-1
same,T/C,[2],1.83
same,Cr,[3],2.82 mg/dL
same,T/C,[4],0.98
same,Na+/K+,[5],1.61
same,Na+/K+,[6],1.89
same,Urine volume,[7],2.5 ml 6hr-1 100g-1
same,Ki,[8],1100 nM
same,T/C,[9],2.25
same,Na,[10],0.412 m equiv 6hr-1 100g-1
same,Cr,[11],2.63 mg/dL
same,Inhibition,[12],45% and 19%
same,Urine volume,[13],0.78 ml 6hr-1 100g-1
same,T/C,[14],2.45
same,UN,[15],62.1 mg/dL
same,Na+/K+,[16],1.05
same,Na,[17],0.426 m equiv 6hr-1 100g-1
same,T/C,[18],2.58
same,Urine volume,[19],2.52 ml 6hr-1 100g-1
same,T/C,[20],2.26
same,Urine volume,[21],1.76 ml 6hr-1 100g-1
same,Na,[22],0.176 m equiv 6hr-1 100g-1
same,Na+/K+,[23],1.58
same,T/C,[24],1.89
same,T/C,[25],0.74
same,UN,[26],119.4 mg/dL
CCCn1c(=O)c2nc(C3CC4C=CC3C4)[nH]c2n(CCC)c1=O (stereo in doubt; 17),Na+/K+,[6],0.98
same,Ki,[8],480 nM
same,T/C,[27],2.06
same,inhibition in vivo at 1 mg/kg,[28],56%
same,Na,[29],0.434 m equiv 6hr-1 100g-1
same,T/C,[30],2.56
same,Urine volume,[31],2.47 ml 6hr-1 100g-1
same,Ki,[32],4.3 nM
same,T/C,[14],0.89
same,T/C,[33],1.72
same,Na,[34],0.233 m equiv 6hr-1 100g-1
same,T/C,[18],0.93
same,Cr,[35],2.08 mg/dL
same,Urine volume,[36],1.32 ml 6hr-1 100g-1
same,inhibition in vivo at 1 mg/kg,[37],53%
same,UN,[38],80.4 mg/dL
same,T/C,[39],2.51
